Laboratory results published in patent publication US12054495B2, “Substituted macrocyclic compounds and related methods of treatment” (Alkermes, Inc., priority 2019, dated 2024).

Test system: MDR1
Assay: MDCK-MDR1 permeability assay
Type: in vitro ADME
Conditions: dog; for Papp A→B at 2 h, 3 μM: MDCK-MDR1, MDCK-MDR1 cells, apical to basolateral, 3 μM test compound, 2 hours at 37 degrees C; for efflux ratio at 2 h, 3 μM: MDCK-MDR1, Papp (basolateral to apical) divided by Papp (apical to basolateral), MDCK-MDR1 cells, read-out: Efflux ratio (ER)
In short: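 Bidirectional transport across MDCK-MDR1 monolayers with test compound at 3 μM in HBSS, Lucifer Yellow 100 μM co-dosed as integrity marker; 2 h at 37 °C, donor and receiver quantified by LC-MS/MS. Papp = dQ/dt × 1/(A×C0); efflux ratio = Papp(B→A)/Papp(A→B), ER>2 taken as active transport.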

Row | Papp A→B at 2 h, 3 μM [×10⁻⁶ cm/s] | efflux ratio at 2 h, 3 μM | SMILES
1 | 0.72 | 36 | CS(=O)(=O)N[C@@H]1CCCN2C(=O)COc3cccc(F)c3[C@H]3CC[C@H](CC3)OC[C@H]12 (racemic) [Compound 49]
2 | 5.9 | 4 | COC(=O)N1CCC[C@H](NS(C)(=O)=O)[C@@H]1CO[C@H]1CC[C@@H](c2ccccc2)CC1 [methyl (2R,3S)-3-((methylsulfonyl)amino)-2-(((cis-4-phenylcyclohexyl)oxy)methyl)-piperidine-1-carboxylate, reference compound]
